Measured values: ChEMBL document CHEMBL5465560, “Selectivity Literature for EUbOPEN Chemogenomic Library” (2024)
Each block holds one compound with its values, some of them ahead of it.

Assays:
[1] = target: T1, Ephrin type-B receptor 1 (Homo sapiens) (UniProt P54762); assay: Selectivity interaction (Kinase panel (Z-LYTE Assay)) EUB0001632a EPHB1; conditions: at 10 µM
T1 sequence (whole entry): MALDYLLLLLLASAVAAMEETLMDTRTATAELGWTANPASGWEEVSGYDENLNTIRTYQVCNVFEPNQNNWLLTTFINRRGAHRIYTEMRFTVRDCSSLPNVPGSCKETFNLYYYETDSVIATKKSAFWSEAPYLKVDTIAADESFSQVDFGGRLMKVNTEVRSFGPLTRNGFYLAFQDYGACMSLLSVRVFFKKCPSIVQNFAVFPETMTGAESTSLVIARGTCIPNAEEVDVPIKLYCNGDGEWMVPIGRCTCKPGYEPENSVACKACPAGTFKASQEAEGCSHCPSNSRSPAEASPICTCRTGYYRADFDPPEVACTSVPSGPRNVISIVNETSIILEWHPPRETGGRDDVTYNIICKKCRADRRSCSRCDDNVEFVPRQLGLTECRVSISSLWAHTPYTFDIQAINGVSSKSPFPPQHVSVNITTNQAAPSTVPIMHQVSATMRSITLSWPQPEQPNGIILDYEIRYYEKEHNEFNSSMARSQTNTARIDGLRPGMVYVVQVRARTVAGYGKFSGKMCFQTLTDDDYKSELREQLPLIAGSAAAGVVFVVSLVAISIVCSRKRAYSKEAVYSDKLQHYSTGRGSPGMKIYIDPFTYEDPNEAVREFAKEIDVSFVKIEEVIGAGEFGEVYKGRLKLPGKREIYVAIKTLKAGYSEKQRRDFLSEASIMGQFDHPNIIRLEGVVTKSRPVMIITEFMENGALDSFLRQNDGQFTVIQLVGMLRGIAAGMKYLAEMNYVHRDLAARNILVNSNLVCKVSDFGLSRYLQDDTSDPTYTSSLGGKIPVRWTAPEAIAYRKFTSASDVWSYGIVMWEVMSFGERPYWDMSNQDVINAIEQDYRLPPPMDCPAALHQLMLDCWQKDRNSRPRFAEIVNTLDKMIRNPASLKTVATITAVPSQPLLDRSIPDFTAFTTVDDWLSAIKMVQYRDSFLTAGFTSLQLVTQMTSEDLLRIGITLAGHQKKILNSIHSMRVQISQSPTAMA

[2] = target: Serine/threonine-protein kinase tousled-like 2 (Homo sapiens) (UniProt Q86UE8); assay: Selectivity interaction (ActivX KiNativ screen (kinase selectivity in THP-1 cell lysates)) EUB0000639a TLK2; type: subcellular; conditions: lysate, at 0.04 µM
Sequence of Serine/threonine-protein kinase tousled-like 2 (Homo sapiens) (Q86UE8 whole entry, looked up): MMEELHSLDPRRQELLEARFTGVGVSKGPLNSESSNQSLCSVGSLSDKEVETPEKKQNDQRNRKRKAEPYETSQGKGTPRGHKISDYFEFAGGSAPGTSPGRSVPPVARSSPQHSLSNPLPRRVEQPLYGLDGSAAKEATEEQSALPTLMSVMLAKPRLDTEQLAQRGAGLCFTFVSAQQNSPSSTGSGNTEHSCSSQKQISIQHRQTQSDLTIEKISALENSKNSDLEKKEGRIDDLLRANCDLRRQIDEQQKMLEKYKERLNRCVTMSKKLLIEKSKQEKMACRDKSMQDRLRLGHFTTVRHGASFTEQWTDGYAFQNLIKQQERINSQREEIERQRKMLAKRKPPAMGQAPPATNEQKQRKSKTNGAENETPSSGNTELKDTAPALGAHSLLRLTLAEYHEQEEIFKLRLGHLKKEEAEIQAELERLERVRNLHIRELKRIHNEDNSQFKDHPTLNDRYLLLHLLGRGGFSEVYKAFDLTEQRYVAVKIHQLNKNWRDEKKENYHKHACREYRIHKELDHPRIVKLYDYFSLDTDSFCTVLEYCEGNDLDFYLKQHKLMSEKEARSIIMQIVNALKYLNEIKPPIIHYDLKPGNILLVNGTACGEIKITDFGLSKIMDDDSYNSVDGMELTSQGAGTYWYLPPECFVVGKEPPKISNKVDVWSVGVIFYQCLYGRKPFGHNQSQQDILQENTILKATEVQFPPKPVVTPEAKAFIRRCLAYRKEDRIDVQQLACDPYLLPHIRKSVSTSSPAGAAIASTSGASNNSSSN

[3] = target: Protein kinase C beta type (Homo sapiens, UniProt P05771); assay: Selectivity interaction (ProQinase) EUB0000171b PRKCB
Sequence of Protein kinase C beta type (P05771 2-671 limits assumed): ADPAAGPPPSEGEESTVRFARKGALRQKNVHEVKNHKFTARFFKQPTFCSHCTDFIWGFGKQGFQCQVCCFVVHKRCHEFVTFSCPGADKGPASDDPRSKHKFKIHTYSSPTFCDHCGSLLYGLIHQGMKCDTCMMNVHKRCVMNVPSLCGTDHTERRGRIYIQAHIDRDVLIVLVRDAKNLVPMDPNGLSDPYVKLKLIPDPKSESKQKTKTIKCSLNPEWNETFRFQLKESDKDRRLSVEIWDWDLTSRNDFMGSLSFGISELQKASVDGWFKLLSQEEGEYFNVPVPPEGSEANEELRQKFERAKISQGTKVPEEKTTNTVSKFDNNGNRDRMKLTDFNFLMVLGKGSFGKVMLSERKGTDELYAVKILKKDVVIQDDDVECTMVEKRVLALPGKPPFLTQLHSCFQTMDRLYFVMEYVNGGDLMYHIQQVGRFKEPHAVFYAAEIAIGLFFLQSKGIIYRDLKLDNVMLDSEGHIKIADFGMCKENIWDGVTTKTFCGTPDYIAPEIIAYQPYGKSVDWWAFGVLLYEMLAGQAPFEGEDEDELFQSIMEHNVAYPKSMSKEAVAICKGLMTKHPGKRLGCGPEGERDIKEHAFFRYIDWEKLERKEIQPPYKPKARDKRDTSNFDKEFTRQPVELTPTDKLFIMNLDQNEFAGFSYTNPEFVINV

[4] = target: Serine/threonine-protein kinase N2 (Homo sapiens, UniProt Q16513); conditions: at 10 µM
Sequence of Serine/threonine-protein kinase N2 (Q16513 whole entry, looked up): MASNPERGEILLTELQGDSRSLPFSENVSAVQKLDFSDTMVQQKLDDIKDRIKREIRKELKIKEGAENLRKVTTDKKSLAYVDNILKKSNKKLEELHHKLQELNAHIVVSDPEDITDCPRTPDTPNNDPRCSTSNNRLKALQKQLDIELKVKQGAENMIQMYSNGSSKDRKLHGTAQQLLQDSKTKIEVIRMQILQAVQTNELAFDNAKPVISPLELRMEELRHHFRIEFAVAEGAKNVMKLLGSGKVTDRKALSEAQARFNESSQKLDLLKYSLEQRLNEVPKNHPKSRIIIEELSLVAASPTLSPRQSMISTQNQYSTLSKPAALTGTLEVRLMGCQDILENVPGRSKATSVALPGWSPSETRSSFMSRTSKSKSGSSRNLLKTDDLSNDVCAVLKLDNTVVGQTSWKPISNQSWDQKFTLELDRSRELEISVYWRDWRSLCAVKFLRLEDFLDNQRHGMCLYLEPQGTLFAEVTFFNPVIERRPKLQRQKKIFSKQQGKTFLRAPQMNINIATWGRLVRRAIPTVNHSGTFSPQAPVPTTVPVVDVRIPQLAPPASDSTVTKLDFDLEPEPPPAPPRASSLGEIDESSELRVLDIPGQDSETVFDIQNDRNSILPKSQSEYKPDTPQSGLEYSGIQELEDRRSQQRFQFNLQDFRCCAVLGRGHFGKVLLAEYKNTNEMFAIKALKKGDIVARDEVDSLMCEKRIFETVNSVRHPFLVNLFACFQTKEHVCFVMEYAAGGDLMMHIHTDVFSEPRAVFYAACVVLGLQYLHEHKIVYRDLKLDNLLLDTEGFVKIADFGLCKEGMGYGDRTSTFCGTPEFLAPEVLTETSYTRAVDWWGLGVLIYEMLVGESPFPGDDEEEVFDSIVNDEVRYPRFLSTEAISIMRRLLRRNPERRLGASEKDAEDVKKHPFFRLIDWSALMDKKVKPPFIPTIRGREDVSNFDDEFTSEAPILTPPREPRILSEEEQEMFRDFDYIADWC

[5] = target: Ribosomal protein S6 kinase alpha-6 (Homo sapiens, UniProt Q9UK32); assay: Selectivity interaction (KinomeScan (DiscoverX)) EUB0000655a RPS6KA6; conditions: at 10 µM
Sequence of Ribosomal protein S6 kinase alpha-6 (Q9UK32 whole entry): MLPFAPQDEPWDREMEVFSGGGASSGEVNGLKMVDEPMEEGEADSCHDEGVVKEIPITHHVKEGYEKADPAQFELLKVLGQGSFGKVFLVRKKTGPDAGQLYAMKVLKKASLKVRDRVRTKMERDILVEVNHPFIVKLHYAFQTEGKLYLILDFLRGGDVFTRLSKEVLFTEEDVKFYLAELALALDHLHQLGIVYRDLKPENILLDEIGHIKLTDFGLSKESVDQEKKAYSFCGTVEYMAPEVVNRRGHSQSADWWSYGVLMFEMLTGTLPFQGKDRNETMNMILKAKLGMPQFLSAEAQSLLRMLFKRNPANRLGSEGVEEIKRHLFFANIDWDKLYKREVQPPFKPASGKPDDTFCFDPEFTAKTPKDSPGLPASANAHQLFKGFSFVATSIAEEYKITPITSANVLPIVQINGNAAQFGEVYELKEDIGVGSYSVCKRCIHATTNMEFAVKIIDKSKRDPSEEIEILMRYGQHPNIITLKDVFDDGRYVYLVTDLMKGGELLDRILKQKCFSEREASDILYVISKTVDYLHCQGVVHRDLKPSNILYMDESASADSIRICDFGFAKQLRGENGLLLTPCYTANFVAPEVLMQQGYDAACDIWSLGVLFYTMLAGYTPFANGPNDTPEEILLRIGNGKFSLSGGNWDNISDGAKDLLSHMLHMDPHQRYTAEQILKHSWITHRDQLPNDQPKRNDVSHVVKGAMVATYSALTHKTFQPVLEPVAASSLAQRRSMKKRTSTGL

[6] = target: MAP/microtubule affinity-regulating kinase 3 (Homo sapiens) (UniProt P27448); assay: Selectivity interaction (Kinase panel (KiNativ target engagement assay in Jurkat cells)) EUB0001635a MARK3; type: cell-based; conditions: at 1 µM
Sequence of MAP/microtubule affinity-regulating kinase 3 (Homo sapiens) (P27448 whole entry, looked up, the tested form may be a part): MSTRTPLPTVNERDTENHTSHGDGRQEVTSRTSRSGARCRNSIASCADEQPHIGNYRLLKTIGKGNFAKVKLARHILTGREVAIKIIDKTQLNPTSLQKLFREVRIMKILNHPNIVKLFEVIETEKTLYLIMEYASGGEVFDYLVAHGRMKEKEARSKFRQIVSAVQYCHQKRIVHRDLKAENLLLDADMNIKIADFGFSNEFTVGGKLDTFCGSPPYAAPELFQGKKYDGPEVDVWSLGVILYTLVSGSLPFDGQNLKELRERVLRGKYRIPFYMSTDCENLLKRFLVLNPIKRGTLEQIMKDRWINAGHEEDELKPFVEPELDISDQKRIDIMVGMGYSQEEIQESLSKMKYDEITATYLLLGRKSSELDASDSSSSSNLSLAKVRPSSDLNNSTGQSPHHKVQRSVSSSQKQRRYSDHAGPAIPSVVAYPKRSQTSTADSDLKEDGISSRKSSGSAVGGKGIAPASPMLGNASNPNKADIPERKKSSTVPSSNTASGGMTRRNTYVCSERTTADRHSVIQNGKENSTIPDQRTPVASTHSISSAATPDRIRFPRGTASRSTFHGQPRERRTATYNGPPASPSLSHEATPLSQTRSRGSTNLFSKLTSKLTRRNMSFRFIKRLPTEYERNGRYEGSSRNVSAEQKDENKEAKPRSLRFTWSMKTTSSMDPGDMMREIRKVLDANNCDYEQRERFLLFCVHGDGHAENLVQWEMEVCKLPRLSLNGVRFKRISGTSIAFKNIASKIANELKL

[7] = target: Epithelial discoidin domain-containing receptor 1 (Homo sapiens) (UniProt Q08345); assay: Selectivity interaction (KinomeScan (DiscoverX)) EUB0000229b DDR1; conditions: at 10 µM
Sequence of Epithelial discoidin domain-containing receptor 1 (Homo sapiens) (Q08345 whole entry, the tested form may be a part): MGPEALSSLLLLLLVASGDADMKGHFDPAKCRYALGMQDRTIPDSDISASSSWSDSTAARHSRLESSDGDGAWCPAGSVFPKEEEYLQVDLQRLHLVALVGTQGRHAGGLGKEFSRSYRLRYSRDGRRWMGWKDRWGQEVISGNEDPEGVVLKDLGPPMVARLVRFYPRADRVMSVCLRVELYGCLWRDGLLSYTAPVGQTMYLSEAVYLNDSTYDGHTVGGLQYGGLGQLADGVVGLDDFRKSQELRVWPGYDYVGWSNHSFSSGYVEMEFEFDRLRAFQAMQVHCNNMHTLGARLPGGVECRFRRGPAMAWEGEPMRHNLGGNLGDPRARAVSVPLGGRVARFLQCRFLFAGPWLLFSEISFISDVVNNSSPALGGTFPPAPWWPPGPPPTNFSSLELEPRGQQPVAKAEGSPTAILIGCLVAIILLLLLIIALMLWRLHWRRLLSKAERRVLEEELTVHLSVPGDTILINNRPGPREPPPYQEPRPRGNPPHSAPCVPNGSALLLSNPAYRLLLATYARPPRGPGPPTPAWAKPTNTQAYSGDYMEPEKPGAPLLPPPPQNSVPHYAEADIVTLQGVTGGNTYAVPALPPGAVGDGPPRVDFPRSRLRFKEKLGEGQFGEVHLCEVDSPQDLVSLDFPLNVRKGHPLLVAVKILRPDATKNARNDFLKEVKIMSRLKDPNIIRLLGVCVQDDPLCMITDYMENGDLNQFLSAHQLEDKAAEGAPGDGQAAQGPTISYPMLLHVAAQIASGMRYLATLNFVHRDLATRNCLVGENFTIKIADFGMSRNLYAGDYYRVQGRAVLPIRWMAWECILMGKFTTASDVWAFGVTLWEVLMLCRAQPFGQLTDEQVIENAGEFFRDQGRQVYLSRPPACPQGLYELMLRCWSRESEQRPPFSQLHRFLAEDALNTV

[8] = target: T2, Cyclin-G-associated kinase (Homo sapiens) (UniProt O14976); assay: Selectivity interaction (KinomeScan (DiscoverX)) EUB0000229b GAK; conditions: at 10 µM
T2 sequence (whole entry): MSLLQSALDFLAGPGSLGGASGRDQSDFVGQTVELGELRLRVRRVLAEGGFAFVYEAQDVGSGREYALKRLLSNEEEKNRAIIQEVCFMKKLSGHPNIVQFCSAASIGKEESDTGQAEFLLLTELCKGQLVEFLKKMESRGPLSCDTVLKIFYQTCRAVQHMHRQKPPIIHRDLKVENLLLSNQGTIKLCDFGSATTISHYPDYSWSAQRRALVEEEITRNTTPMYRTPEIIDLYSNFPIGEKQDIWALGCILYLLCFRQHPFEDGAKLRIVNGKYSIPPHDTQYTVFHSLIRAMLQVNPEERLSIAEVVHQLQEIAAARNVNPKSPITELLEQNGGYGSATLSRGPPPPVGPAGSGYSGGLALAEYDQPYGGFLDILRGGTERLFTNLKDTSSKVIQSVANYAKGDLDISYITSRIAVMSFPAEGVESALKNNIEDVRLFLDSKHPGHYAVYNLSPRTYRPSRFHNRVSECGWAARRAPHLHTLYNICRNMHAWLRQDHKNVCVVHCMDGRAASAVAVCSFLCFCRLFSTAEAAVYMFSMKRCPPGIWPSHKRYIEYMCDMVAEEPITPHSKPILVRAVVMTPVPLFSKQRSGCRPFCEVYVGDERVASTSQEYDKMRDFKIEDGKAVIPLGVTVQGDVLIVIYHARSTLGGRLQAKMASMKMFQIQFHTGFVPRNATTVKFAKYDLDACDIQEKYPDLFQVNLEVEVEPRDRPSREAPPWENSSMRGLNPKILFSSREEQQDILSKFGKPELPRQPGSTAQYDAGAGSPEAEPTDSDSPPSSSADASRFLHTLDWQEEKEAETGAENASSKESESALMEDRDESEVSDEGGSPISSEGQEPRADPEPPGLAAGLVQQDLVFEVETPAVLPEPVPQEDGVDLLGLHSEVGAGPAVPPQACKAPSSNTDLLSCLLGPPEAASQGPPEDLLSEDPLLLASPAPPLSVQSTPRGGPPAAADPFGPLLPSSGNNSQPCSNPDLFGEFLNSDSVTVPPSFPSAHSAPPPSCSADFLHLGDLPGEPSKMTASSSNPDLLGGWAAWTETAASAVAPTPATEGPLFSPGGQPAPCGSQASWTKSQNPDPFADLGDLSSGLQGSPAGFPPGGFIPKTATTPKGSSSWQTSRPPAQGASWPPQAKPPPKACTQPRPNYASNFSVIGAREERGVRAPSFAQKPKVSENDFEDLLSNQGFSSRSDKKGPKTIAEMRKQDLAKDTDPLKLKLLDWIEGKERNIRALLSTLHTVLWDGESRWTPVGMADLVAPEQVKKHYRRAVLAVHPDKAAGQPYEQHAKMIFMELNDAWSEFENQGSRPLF

[9] = target: Serine/threonine-protein kinase 38-like (Homo sapiens) (UniProt Q9Y2H1); assay: Selectivity interaction (KinomeScan (DiscoverX)) EUB0000092b STK38L; conditions: at 10 µM
[10] = target: Phosphorylase b kinase gamma catalytic chain, skeletal muscle/heart isoform (Homo sapiens) (UniProt Q16816); conditions: at 10 µM

% of control [1]: -4.1%
SMILES: Cn1cc(-n2cnc3c(NCc4nc5cc(Cl)c(Cl)cc5[nH]4)nc(N4CCOCC4)nc32)cn1

% of inhibition [2]: 9.2%
SMILES: CC[C@@H]1[C@H](F)C(=O)N[C@@H]1COc1nccc2cc(C(N)=O)c(OC)cc12 [ZIMLOVISERTIB]

% of control ([3]; at 1 µM): 111% | % of control ([3]; at 5 µM): 106%
SMILES: C=CC(=O)Nc1cccc(C(=O)Nc2ccc(Nc3cc(-c4[nH]c(SC)nc4C)ccn3)cc2)c1

SMILES: COCC(=O)NC/C=C/c1ccc2ncnc(Nc3ccc(Oc4ccc(C)nc4)c(C)c3)c2c1 [CP-724714]
% of control [4]: 99%

SMILES: CN(C)CCOc1ccc(-c2nc(-c3ccncc3)c(-c3ccc4c(c3)CC/C4=N\O)[nH]2)cc1
% of control [5]: 88%

SMILES: C=CC(=O)Nc1ccc(C(=O)Nc2[nH]nc3c2CN(C(=O)N[C@H](CN(C)C)c2ccccc2)C3(C)C)cc1
% of engagement ([6]; Selectivity number of off-targets 0.0, Selectivity number of targets 233.0, Source Knowledge https://www.sciencedirect.com/science/article/pii/S2451945619300674?via%3Dihub): 16.4% | % of engagement [6]: 19.1%

SMILES: COc1cc(N(C)c2ccnc3ccc(C(F)(F)F)cc23)cc(OC)c1OC
% binding [7]: 78% | % binding [8]: 43%

SMILES: CCC(=O)N1CCN(c2ccc(-n3c(=O)ccc4cnc5ccc(-c6cnc7ccccc7c6)cc5c43)cc2C(F)(F)F)CC1
% of control [9]: 94%

SMILES: Cc1cc([C@@H](C)Nc2ccccc2C(=O)O)c2nc(N3CCOCC3)cc(=O)n2c1 [AZD-6482]
% of control [10]: 93%
